Source: paper PMC6737244, “Cathelicidin Peptides Restrict Bacterial Growth via Membrane Perturbation and Induction of Reactive Oxygen Species” (mBio, 2019)
Ends that are not written are not given here.

Legend:
[1] = system: Klebsiella pneumoniae C2; assay type: cell-based
Protocol: (§1) MICs were determined by using the broth microdilution method based on the general recommendations of the Clinical and Laboratory Standards Institute (CLSI). Bacteria were grown in CAMHB overnight. They were then diluted into fresh medium the following morning and grown to early log phase. The cultures were then diluted to approximately 5 × 10^5 CFU ml^−1, and 100 μl was added to sterile 96-well polypropylene microtiter plates (Corning, NY, USA) preloaded with twofold dilutions of antimicrobial peptides. […] All MIC assays were determined from at least three independent assays.

[2] = system: Escherichia coli ATCC 35218; assay type: cell-based
Protocol: as §1

[3] = system: Pseudomonas aeruginosa OC4083; assay type: cell-based
Protocol: as §1

[4] = system: Pseudomonas aeruginosa ATCC 27853; assay type: cell-based
Protocol: as §1

[5] = system: Klebsiella pneumoniae ATCC 700603; assay type: cell-based
Protocol: as §1

[6] = system: Enterobacter cloacae OC4080; assay type: cell-based
Protocol: as §1

[7] = system: Escherichia coli ATCC 25922; assay type: cell-based
Protocol: as §1

[8] = system: Klebsiella pneumoniae OC8893; assay type: cell-based
Protocol: as §1

[9] = system: Escherichia coli UTI89; assay type: cell-based
Protocol: as §1

[10] = system: Klebsiella pneumoniae 262 (NDM1+); assay type: cell-based
Protocol: as §1

[11] = system: Klebsiella pneumoniae OC4110; assay type: cell-based
Protocol: as §1

[12] = system: Pseudomonas aeruginosa PAO1; assay type: cell-based
Protocol: as §1

[13] = system: Escherichia coli OC4075; assay type: cell-based
Protocol: as §1

[14] = system: Enterobacter cloacae OC4092; assay type: cell-based
Protocol: as §1

[15] = system: Klebsiella pneumoniae 88 (NDM1+); assay type: cell-based
Protocol: as §1

[16] = system: Escherichia coli MC4100a; assay type: cell-based
Protocol: as §1

[17] = system: Gram-positive bacteria; conditions: cited from earlier work
Excerpt: The human cathelicidin LL-37 has important roles in modulating inflammatory responses. […] Perhaps because they are released in response to bacterial infection and tissue injuries, LL-37 and other cathelicidins can promote wound healing and reduce fibrosis ([8][–][10]). All of these desirable activities have generated significant interest in developing cathelicidins to treat bacterial infection and injuries, however, c ...

Sequence: GRFKRFRKKLKKLFKKLSPVIPLLHLG [BMAP-27B, reference compound]
- MIC [1]: 4 µM
- MIC [2]: 4 µM
- MIC [3]: 4 µM
- MIC [4]: 4 µM
- MIC [5]: 4 µM
- MIC [6]: 4 µM
- MIC [7]: 4 µM
- MIC [8]: 8 µM
- MIC [9]: 4 µM
- MIC [10]: 4 µM
- MIC [11]: 8 µM
- MIC [12]: 4 µM
- MIC [13]: 4 µM
- MIC [14]: 4 µM
- MIC [15]: 4 µM
- MIC [16]: 4 µM
- Fold-higher concentration needed to reach the MICs for Gram-positive bacteria [17]: ca. 10 fold
